Tests used:
Assay in all cases: direct labeling of recombinantly expressed proteins by gel-based ABPP (WT vs lysine mutant)
Assay type in all cases: binding
G6PD = biological target: T1, G6PD (Homo sapiens, UniProt P11413); conditions: G6PD K171, KR mutant; 10 μM probe, 1 h
T1 construct: expressed in transfected cells; host or cells: HEK 293T
Source text: (§1) Subcloning and mutagenesis. Unless noted below, genes were amplified from cDNA prepared from low passage HEK 293T cells using the Ribozol RNA extraction reagent (Amresco) and the iScript Reverse Transcription Supermix kit (Bio-Rad). For the following proteins cDNA clones were used for amplification instead: PFKP (5180268, Dharmacon), HK1 (BC008730, transomic), SIN3A (BC137098, transomic), G6PD (BC000337, transomic) and TGIF1 (BC031268, transomic). Mouse CARM1 in pFLAG-CMV-6c was a kind gift from the Mowen lab (TSRI). NUDT2 was obtained as synthesized gene (IDT). DNA was amplified with custom forward and reverse primers using phusion polymerase (NEB, M0530S), digested with the indicated restriction enzyme and ligated into pFLAG-CMV-6c or pRK5 with the appropriate affinity tag. Lysine mutants were generated using QuikChange site-directed mutagenesis using Phusion® High-Fidelity DNA Polymerase and primers containing the desired mutations and their respective complements. The cloning of TTR and its K35A mutant has been described in Choi et al., “Chemoselective small molecules that covalently modify one lysine in a non-enzyme protein in plasma,” Nat. Chem. Biol. 6, 133-139 (2010). TTR was expressed in E. coli and purified as described. For gel-based experiments 1 μM TTR was added into 1 mg ml^−1 soluble MDA-MB-231 lysate.
(§2) Recombinant expression of proteins by transient transfection. HEK 293T cells were grown to 50% confluency in 10 ml DMEM supplemented with 10% fetal bovine serum (FBS), penicillin, streptomycin and glutamine in 10 cm tissue culture dishes. 3 μg of DNA was diluted in 500 μL DMEM and 30 μL of PEI (MW 40,000, 1 mg ml^−1, Polysciences) were added. The mixture was incubated at room temperature for 30 min and added dropwise to the cells. Cells were grown for 48 h at 37° C. with 5% CO2. Cells were washed with cold PBS, scraped with cold PBS and cell pellets were isolated by centrifugation (1,400 g, 3 min, 4° C.), and stored at −80° C. until use. Cell pellets were resuspended in PBS, lysed by sonication and fractionated (100,000 g, 45 min) to yield soluble and membrane fractions. The soluble fraction was adjusted to a final protein concentration of 1 mg ml^−1 for gel-based ABPP experiments.
(§3) Direct labeling of recombinantly expressed proteins by gel-based ABPP. 50 μL of soluble HEK 293T proteome (1 mg ml^−1) expressing the respective protein (WT or KR mutant) or transfected with an empty vector were treated with 10 μM of the indicated probe for 1 h at room temperature. The samples were analyzed as described in the previous section. For quantification of relative labeling of the different protein variants, the intensity of labeling was determined by quantifying the integrated optical intensity of the bands using ImageLab 5.2.1 software (BioRad).

FAH = biological target: T2, FAH (Homo sapiens, UniProt P16930); conditions: FAH K241, KR mutant; 10 μM probe, 1 h
T2 construct: expressed in transfected cells; host or cells: HEK 293T
T2 sequence (P16930 1-419): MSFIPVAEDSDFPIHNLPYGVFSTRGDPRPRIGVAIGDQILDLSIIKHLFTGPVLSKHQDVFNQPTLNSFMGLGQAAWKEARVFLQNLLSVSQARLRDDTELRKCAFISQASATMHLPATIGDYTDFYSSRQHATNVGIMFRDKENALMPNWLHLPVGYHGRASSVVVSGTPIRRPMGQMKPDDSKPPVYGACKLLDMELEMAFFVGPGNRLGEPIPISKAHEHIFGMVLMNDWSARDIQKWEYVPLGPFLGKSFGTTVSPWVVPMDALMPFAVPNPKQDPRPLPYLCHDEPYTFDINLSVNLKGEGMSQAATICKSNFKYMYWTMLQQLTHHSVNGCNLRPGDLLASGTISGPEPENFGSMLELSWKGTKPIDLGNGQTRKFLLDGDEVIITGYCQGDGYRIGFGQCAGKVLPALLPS
Source text: as §1, §2, §3

PFKL = biological target: T3, PFKL (Homo sapiens, UniProt P17858); conditions: PFKL K676, KA mutant; 10 μM probe, 1 h
T3 construct: expressed in transfected cells; host or cells: HEK 293T
T3 sequence (P17858 1-780): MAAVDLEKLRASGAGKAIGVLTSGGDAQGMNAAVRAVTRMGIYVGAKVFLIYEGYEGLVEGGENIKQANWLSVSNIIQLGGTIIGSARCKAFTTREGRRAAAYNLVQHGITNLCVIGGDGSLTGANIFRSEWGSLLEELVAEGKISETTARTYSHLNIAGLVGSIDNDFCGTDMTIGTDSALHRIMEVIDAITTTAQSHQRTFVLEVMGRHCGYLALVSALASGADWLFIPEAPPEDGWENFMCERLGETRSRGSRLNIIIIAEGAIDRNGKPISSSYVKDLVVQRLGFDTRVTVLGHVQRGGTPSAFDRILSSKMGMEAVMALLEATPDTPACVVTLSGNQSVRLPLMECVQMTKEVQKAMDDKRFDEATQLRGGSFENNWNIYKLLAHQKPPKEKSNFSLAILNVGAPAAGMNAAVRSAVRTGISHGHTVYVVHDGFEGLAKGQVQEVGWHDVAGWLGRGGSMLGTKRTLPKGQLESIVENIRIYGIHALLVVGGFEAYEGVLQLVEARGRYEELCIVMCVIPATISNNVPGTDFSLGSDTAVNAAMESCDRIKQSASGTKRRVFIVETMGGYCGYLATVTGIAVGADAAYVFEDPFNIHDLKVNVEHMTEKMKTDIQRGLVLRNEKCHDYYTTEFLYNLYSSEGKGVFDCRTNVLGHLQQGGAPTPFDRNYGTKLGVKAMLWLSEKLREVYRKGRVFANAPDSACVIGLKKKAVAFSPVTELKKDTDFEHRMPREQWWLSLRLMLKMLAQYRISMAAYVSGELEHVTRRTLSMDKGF
Source text: as §1, §2, §3

T1 sequence (P11413 whole entry): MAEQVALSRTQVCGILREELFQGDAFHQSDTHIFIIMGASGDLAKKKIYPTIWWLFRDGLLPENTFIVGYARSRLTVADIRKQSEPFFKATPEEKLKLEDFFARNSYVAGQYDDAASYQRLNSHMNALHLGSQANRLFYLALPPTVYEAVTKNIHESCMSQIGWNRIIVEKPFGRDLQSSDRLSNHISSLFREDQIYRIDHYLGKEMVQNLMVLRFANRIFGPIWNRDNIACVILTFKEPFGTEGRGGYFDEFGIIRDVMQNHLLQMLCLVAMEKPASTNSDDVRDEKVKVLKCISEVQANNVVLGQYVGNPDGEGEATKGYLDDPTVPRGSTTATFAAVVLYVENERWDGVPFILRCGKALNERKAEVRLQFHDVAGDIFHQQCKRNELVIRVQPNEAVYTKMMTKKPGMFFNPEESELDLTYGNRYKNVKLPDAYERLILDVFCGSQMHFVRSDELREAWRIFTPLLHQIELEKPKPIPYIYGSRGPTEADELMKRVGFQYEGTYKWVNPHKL

| Structure (SMILES) | labeling of WT vs mutant protein by probe (G6PD) | labeling of WT vs mutant protein by probe (FAH) | labeling of WT vs mutant protein by probe (PFKL) |
| --- | --- | --- | --- |
| C#CCCC(=O)Oc1c(F)c(F)c(S(=O)(=O)[O-])c(F)c1F.[Na+] [probe 1, reference compound] | ND (the WT did not label more than the mutant (<2x difference quantified)) | ND (the WT did not label more than the mutant (<2x difference quantified)) | PD (the WT labeled more than the mutant (>2x difference quantified)) |
| C#CCCC(=O)Oc1c(F)c(F)c(F)c(F)c1F [probe 6, Pentafluorophenyl 4-pentynoate] | ND (the WT did not label more than the mutant (<2x difference quantified)) | – | – |
| C#Cc1ccc(C(=O)Oc2ccccc2[N+](=O)[O-])cc1 [probe 10, 2-Nitrophenyl 4-ethynylbenzoate] | – | – | PD (the WT labeled more than the mutant (>2x difference quantified)) |
| C#Cc1ccc(C(=O)Oc2c(F)c(F)cc(F)c2F)cc1 [probe 12, 2,3,5,6-Tetrafluorophenyl 4-ethynylbenzoate] | ND (the WT did not label more than the mutant (<2x difference quantified)) | PD (the WT labeled more than the mutant (>2x difference quantified)) | PD (the WT labeled more than the mutant (>2x difference quantified)) |
| C#Cc1ccc(C(=O)Oc2c(F)c(F)c(F)c(F)c2F)cc1 [probe 13, Pentafluorophenyl 4-ethynylbenzoate] | ND (the WT did not label more than the mutant (<2x difference quantified)) | – | PD (the WT labeled more than the mutant (>2x difference quantified)) |
| Cc1cc(C)n2c1C=C1C=CC(CCC(=O)Oc3c(F)c(F)c(S(=O)(=O)[O-])c(F)c3F)=[N+]1[B-]2(F)F.[Na+] [probe 18, reference compound] | NL (labelling of the WT protein was not detected by gel (intensity for WT less than 2x background)) | PD (the WT labeled more than the mutant (>2x difference quantified)) | PD (the WT labeled more than the mutant (>2x difference quantified)) |

Source: patent US20210255193A1, “LYSINE REACTIVE PROBES AND USES THEREOF” (The Scripps Research Institute, priority 2017, published 2021)
